Assay results reported in patent publication US20060264463A1, “Chemical compounds” (priority 2003, published 2006).

What follows are compounds tested against T1, human H1 receptor (Homo sapiens, UniProt P35367) (assay: Histamine H1 receptor binding, competition displacement of [3H]-pyrilamine). Conditions: displacement of 1 nM [3H]-pyrilamine; 2 μg membranes from recombinant CHO-K1 cells expressing the human H1 receptor; 1 hour at room temperature; read-out: H1 pKi (converted).
T1 construct: purchased Euroscreen SA, Brussels, Belgium ES-390-M; host or cells: CHO-K1
T1 sequence (P35367 whole entry): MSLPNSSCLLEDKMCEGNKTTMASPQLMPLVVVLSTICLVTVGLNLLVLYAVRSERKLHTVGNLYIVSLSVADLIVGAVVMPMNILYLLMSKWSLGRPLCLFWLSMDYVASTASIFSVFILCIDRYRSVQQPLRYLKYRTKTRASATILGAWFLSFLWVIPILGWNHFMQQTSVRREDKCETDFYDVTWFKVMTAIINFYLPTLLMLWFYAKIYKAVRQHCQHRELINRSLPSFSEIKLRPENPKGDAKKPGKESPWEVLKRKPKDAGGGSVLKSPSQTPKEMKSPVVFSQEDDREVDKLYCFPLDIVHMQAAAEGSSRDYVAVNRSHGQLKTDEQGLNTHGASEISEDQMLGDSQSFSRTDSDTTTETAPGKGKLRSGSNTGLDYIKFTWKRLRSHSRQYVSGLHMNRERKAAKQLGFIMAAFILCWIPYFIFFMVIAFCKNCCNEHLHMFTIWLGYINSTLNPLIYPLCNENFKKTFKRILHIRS
`COc1cccc(C(=O)O)c1N1CCC(CN2CCC(Oc3ccc(C#N)c(Cl)c3)CC2)CC1` [Example 55, 2-(4-{[4-(3-chloro-4-cyanophenoxy)piperidin-1-yl]methyl}piperidin-1-yl)-3-methoxybenzoic acid] was tested, and the Ki was 316 nM. `Cc1c(OC2CCN(CC3CCN(c4cccc(C(=O)O)c4)CC3)CC2)ccc(Cl)c1Cl` [Example 96, 3-(4-{[4-(3,4-dichloro-2-methylphenoxy)piperidin-1-yl]methyl}piperidin-1-yl)benzoic acid] showed a Ki of 20 nM. Work on `O=C(O)c1ccccc1N1CCC(O)(CN2CCC(Oc3ccc(Cl)c(Cl)c3)CC2)CC1` [Example 63, 2-(4-{[4-(3,4-dichlorophenoxy)piperidin-1-yl]methyl}-4-hydroxypiperidin-1-yl)benzoic acid] yielded a Ki of 50.1 nM. Compound `COC(=O)c1ccccc1N1CCC(CN2CCC(Oc3ccc(Cl)c(Cl)c3)CC2)CC1` [Example 1, methyl 2-[4-[[4-(3,4-dichlorophenoxy)-1-piperidinyl]methyl]-1-piperidinyl)-benzoate] has a Ki of 2.51 nM. `O=C(O)c1cccc(N2CCC(CN3CCC(Cc4ccc(Cl)c(Cl)c4)CC3)CC2)c1` [Example 106, 3-(4-{[4-(3,4-dichlorobenzyl)piperidin-1-yl]methyl}piperidin-1-yl)benzoic acid] showed a Ki of 20 nM. `Cc1cc(Cl)ccc1OC1CCN(CC2CCN(c3ccccc3C(=O)O)CC2)CC1` [Example 49, 2-(4-{[4-(4-chloro-2-methylphenoxy)piperidin-1-yl]methyl}piperidin-1-yl)benzoic acid] showed a Ki of 50.1 nM. Work on `N#Cc1ccc(OC2CCN(CC3CCN(c4c(Cl)cccc4C(=O)O)CC3)CC2)cc1Cl` [Example 48, 3-chloro-2-(4-{[4-(3-chloro-4-cyanophenoxy)piperidin-1-yl]methyl}piperidin-1-yl)benzoic acid] yielded a Ki of 79.4 nM. `Cc1ccc(C(=O)O)c(N2CCC(CN3CCC(Oc4ccc(Cl)c(Cl)c4)CC3)CC2)n1` [Example 47, 2-(4-{[4-(3,4-dichlorophenoxy)piperidin-1-yl]methyl}piperidin-1-yl)-6-methylnicotinic acid] gave a Ki of 5.01 nM. Compound `N#Cc1ccc(OC2CCN(CC3CCN(c4ccccc4C(=O)O)CC3)CC2)cc1Cl` [Example 34, 2-(4-{[4-(3-chloro-4-cyanophenoxy)piperidin-1-yl]methyl}piperidin-1-yl)benzoic acid] has a Ki of 631 nM. In the case of `CCOC(=O)c1cccc(N2CCC(CN3CCC(Cc4ccc(Cl)c(Cl)c4)CC3)CC2)c1` [Example 32, Ethyl 3-(4-{[4-(3,4-dichlorobenzyl)piperidin-1-yl]methyl}piperidin-1-yl)benzoate], the Ki is reported as 10 nM. Work on `N#Cc1ccc(OC2CCN(CC3CCN(c4cc(Cl)ccc4C(=O)O)CC3)CC2)cc1Cl` [Example 36, 4-chloro-2-(4-{[4-(3-chloro-4-cyanophenoxy)piperidin-1-yl]methyl}piperidin-1-yl)benzoic acid] yielded a Ki of 10 nM. `Cc1cc(Cl)ccc1OC1CCN(CC2CCN(c3ccc([N+](=O)[O-])cc3C(=O)O)CC2)CC1` [Example 59, 2-(4-{[4-(4-chloro-2-methylphenoxy)piperidin-1-yl]methyl}piperidin-1-yl)-5-nitrobenzoic acid] showed a Ki of 1.58 nM. Compound `Cc1cc(OC2CCN(CC3CCN(c4cc(Cl)ccc4C(=O)O)CC3)CC2)ccc1Cl` [Example 74, 4-chloro-2-(4-{[4-(4-chloro-3-methylphenoxy)piperidin-1-yl]methyl}piperidin-1-yl)benzoic acid] has a Ki of 2.51 nM. Compound `Cc1cc(OC2CCN(CC3CCN(c4c(F)cccc4C(=O)O)CC3)CC2)ccc1Cl` [Example 68, 2-(4-{[4-(4-chloro-3-methylphenoxy)piperidin-1-yl]methyl}piperidin-1-yl)-3-fluorobenzoic acid] has a Ki of 15.8 nM. With `Cc1cc(C(=O)O)cc(N2CCC(CN3CCC(Oc4ccc(Cl)c(Cl)c4)CC3)CC2)c1` [Example 99, 3-(4-{[4-(3,4-dichlorophenoxy)piperidin-1-yl]methyl}piperidin-1-yl)-5-methylbenzoic acid] the Ki was 7.94 nM.
